Measured values from US7572606B1 (Nereus Pharmaceuticals, Inc., priority 2005, dated 2009).
Read-outs that look alike come from different tables or passages of the source.

Legend:
[1] = tested on: 20S proteasome chymotrypsin-like activity in RPMI 8226 cells; assay: Chymotrypsin-like activity of 20S proteasomes in treated cells; format: cell-based, human; settings: 1 hr, mean ± SD, n = 3
Description: RPMI 8226 (ATCC, CCL-155), the human multiple myeloma cell line, was cultured in RPMI 1640 medium supplemented with 2 mM L-glutamine, 100 units/ml penicillin, 100 μg/ml streptomycin, 1 mM sodium pyruvate and 10% heat inactivated fetal bovine serum at 37° C., 5% CO2 and 95% humidified air. […] DMSO was used as the vehicle control at a final concentration of 0.1%. Following 1 hr incubation of RMPI 8226 cells with the compounds, the cells were pelleted by centrifugation at 2,000 rpm for 10 sec at room temperature and washed 3× with ice-cold 1×Dulbecco's Phosphate-Buffered Saline (DPBS, Mediatech, Herndon, Va.). DPBS washed cells were lysed on ice for 15 min in lysis buffer (20 mM HEPES, 0.5 mM EDTA, 0.05% Triton X-100, pH 7.3) supplemented with protease inhibitor cocktail (Roche Diagnostics, Indianapolis, Ind.). Cell debris was pelleted by centrifugation at 14,000 rpm for 10 min, 4° C. and supernatants (=cell lysates) were transferred to a new tube. Protein concentration was determined by the BCA protein assay kit (Pierce Biotechnology, Rockford, Ill.). […] The total amount of protein used for each assay was 20 μg. The final concentration of Suc-LLVY-AMC and DMSO was 20 μM and 0.2%, respectively.

U266 = assay: Cell growth inhibition, resazurin, 48 h; format: cell-based, human; settings: U266, 48 h drug exposure
[2] = tested on: NF-κB-mediated luciferase activity in HEK293 NF-κB/Luc cells; assay: NF-κB-mediated luciferase reporter gene assay; format: cell-based, human; settings: for EC50: 6 h TNF-α stimulation; for luciferase activity upon TNF-α stimulation: pretreatment of NF-κB/Luc 293 cells
Summary of the method: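 HEK293 cells carrying luciferase under 5×NF-κB sites, in phenol-red free DMEM without G418, pretreated 1 h with compound (8-point half-log series), then stimulated with TNF-α for 6 h. Luciferase activity read as RLU after 10 min with Steady Lite reagent at room temperature.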

[3] = biological target: T1, trypsin-like activity of rabbit muscle 20S proteasome (Oryctolagus cuniculus, UniProt G1SWK8); assay: In vitro inhibition of 20S proteasome, Boc-LRR-AMC; format: biochemical; settings: for inhibition of the trypsin-like activity of the 20S proteasome: under the conditions tested; for EC50: purified rabbit 20S proteasome, Boc-LRR-AMC
T1 construct: EC50 Trypsin-like; other: purified rabbit 20S proteasome, Boc-LRR-AMC; other: under the conditions tested
T1 sequence (G1SWK8 1-271): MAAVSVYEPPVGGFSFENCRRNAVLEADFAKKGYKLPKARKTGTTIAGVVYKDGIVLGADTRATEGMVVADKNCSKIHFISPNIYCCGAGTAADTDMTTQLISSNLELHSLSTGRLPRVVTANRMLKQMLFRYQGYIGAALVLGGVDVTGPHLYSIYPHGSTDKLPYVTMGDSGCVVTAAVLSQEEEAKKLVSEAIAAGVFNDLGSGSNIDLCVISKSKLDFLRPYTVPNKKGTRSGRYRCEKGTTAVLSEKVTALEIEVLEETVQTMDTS

MES-SA/Dx5 = assay: Cell growth inhibition, resazurin, 48 h; settings: for EC50: Homo sapiens, MES-SA/Dx5, 48 h
Description: (§1) Concentrations ranging from 6.32 μM to 2 nM were tested for II-2 and II-4.

MES-SA = assay: Cell growth inhibition, resazurin, 48 h; settings: for EC50: Homo sapiens, 48 h
Description: as §1

[4] = biological target: T2, 20S proteasome chymotrypsin-like activity in PC-3 cells (Homo sapiens, UniProt P28074); assay: Chymotrypsin-like activity of 20S proteasomes in treated cells; format: cell-based; settings: PC-3, read-out: % inhibition of the chymotrypsin-like activity of 20S proteasomes in PC-3 cell lysates, 1 hr; for inhibition at 0.01 µM: 10 nM; for inhibition at 0.1 µM: 100 nM; for inhibition at 1 µM: 1,000 nM; for inhibition at 10 µM: 10,000 nM
T2 construct: PC-3 (ATCC, CRL-1435), the human prostate cancer cell line; host or cells: PC-3
T2 sequence (P28074 60-263): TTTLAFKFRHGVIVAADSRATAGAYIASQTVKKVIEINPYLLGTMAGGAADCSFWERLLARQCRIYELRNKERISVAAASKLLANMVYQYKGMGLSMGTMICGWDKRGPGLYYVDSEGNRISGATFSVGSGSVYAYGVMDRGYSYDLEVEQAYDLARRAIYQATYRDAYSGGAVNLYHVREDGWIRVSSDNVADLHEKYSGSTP
Description: PC-3 (ATCC, CRL-1435), the human prostate cancer cell line, was cultured in F12K medium supplemented with 2 mM L-glutamine, 100 units/ml penicillin, 100 μg/ml streptomycin and 10% heat inactivated fetal bovine serum at 37° C., 5% CO2 and 95% humidified air. […] DMSO was used as the vehicle control at a final concentration of 0.1%. Following 1 hr incubation of PC-3 cells with the compounds, the cells were washed 3× with ice-cold 1×Dulbecco's Phosphate-Buffered Saline (DPBS, Mediatech, Herndon, Va.). […] Cell debris was pelleted by centrifugation at 14,000 rpm for 10 min, 4° C. and supernatants (=cell lysates) were transferred to a new tube. Protein concentration was determined by the BCA protein assay kit (Pierce Biotechnology, Rockford, Ill.). […] The total amount of protein used for each assay was 20 μg. The final concentration of Suc-LLVY-AMC and DMSO was 20 μM and 0.2%, respectively. Results are presented as the percent inhibition of the 20S proteasome chymotrypsin-like activity relative to the DMSO control.

[5] = Homo sapiens, HEK293, 1 h pretreatment, read-out: EC50

Structure (SMILES) | % inhibition of the chymotrypsin-like activity of 20S proteasomes in RPMI 8226 cell lysates ([1]; 1 nM) [%] | % inhibition of the chymotrypsin-like activity of 20S proteasomes in RPMI 8226 cell lysates ([1]; 5 nM) [%] | % inhibition of the chymotrypsin-like activity of 20S proteasomes in RPMI 8226 cell lysates ([1]; 10 nM) [%] | % inhibition of the chymotrypsin-like activity of 20S proteasomes in RPMI 8226 cell lysates ([1]; 50 nM) [%] | % inhibition of the chymotrypsin-like activity of 20S proteasomes in RPMI 8226 cell lysates ([1]; 100 nM) [%] | EC50 (U266; Homo sapiens, U-266, 48 h) [nM] | EC50 [2, 5] [nM] | luciferase activity upon TNF-α stimulation [2] | inhibition of the trypsin-like activity of the 20S proteasome [3] | inhibition at 0.01 µM [4] [%] | inhibition at 0.1 µM [4] [%] | inhibition at 1 µM [4] [%] | inhibition at 10 µM [4] [%] | % inhibition of the chymotrypsin-like activity of 20S proteasomes in RPMI 8226 cell lysates ([1]; 500 nM) [%] | % inhibition of the chymotrypsin-like activity of 20S proteasomes in RPMI 8226 cell lysates ([1]; 1,000 nM) [%] | % inhibition of the chymotrypsin-like activity of 20S proteasomes in RPMI 8226 cell lysates ([1]; 10,000 nM) [%] | further results
C[C@@]12OC(=O)[C@]1([C@@H](O)[C@@H]1C=CCCC1)NC(=O)[C@@H]2CCCl [Formula II-16, Salinosporamide A] | 30 ± 7 | 85±7 | 94 ± 3 | 97 ± 0 | 98 ± 1 | 4.7 ± 0.7 | ~7 | dose-dependent decrease of luciferase activity | able to inhibit the trypsin-like activity | – | – | – | – | – | – | – | EC50 (MES-SA/Dx5): 23 ± 1 nM; % cytotoxicity (MES-SA/Dx5; MES-SA/Dx5): 92 ± 2%; % cytotoxicity (MES-SA): 94 ± 1%; EC50 (MES-SA): 20 ± 5 nM
CC[C@H]1C(=O)N[C@@]2([C@@H](O)[C@@H]3C=CCCC3)C(=O)O[C@@]12C [Formula II-17] | 6 ± 6 | 10 ± 5 | 6 ± 6 | 26 ± 5 | 30±4 | – | 960 ± 210 | – | able to inhibit the trypsin-like activity | 16 | 26 | 49 | 79 | 39 ± 3 | 46 ± 4 | 65 ± 5 | EC50 (MES-SA/Dx5; MES-SA/Dx5, 48 h drug exposure): 9450 nM; EC50 (MES-SA; 48 h drug exposure): 9230 nM
C[C@H]1C(=O)N[C@@]2([C@@H](O)[C@@H]3C=CCCC3)C(=O)O[C@@]12C [Formula II-20] | 3 ± 10 | 31 ± 9 | 37 ± 3 | 64 ± 3 | 66±3 | 310 | – | dose-dependent decrease of luciferase activity | able to inhibit the trypsin-like activity | 38 | 57 | 71 | 90 | 71 ± 2 | 73 ± 2 | 87 ± 4 | EC50 (U266): 442 nM; EC50 ([2]; 1 h pretreatment): 849 ± 225 nM; EC50 [3]: 321 nM; EC50 ([3]; listed as II-20): 321 nM
